Here are results for three compounds from patent US6448289B1, “Method for repelling arthropods” (priority 2000, dated 2002).

Test [1] deals with German cockroaches (Blattella germanica). Description: Repellency test against German cockroaches with impregnated filter paper triangular pillar. It counts as in vivo. The note with it: 24 hours later, dosage 833 mg/m^2; for No. of cockroaches (German cockroaches in the triangular pillar): test repeated twice. On the procedure:
A triangular pillar (3 cm-equilateral triangle of opening, 6 cm in length) was prepared with filter paper, and the acetone solution (0.9 ml) prepared according to Production example 2 was impregnated with the triangular pillar uniformly and air-dried for 5 to 10 minutes.
In a 650 cc volume plastic cup, said triangular pillar was placed horizontally, German cockroaches (Blattella germanica, 5 males and 5 females) were placed in said plastic cup, covered with nylon gauze, and then observed the number of German cockroaches in the triangular pillar 24 hours later. The test was repeated twice.
Further, the same procedure was performed using a triangular pillar of filter paper impregnated acetone without active ingredient, and the number of German cockroaches in the triangular pillar 24 hours later was counted. […] [formula]
Furthermore, the same procedure was performed using acetone solution prepared according to Production example 2, provided that DEET or MGK874 was used in place of Compound [A] for comparison.

Test [2] has as its system yellow fever mosquitoes (Aedes aegypti). The test can be described thus: Repellency test against yellow fever mosquitoes on treated chick abdomen. In kind it is in vivo. The note with it: dosage 3 g/m^2, ethanol solution on chick abdomen. On the procedure:
Fifty adult yellow fever mosquitoes (Aedes aegypti, approximately equal number of female and male) which were about 3 weeks old after emergence were released in a cage (22 cm×22 cm×30 cm, made of stainless steel and nylon gauge).
A chick whose abdominal feathers had been removed with haircutter was fixed on a wood board (7 cm×15 cm) having a hole of 2.5 cm×4 cm so that its abdominal skin was exposed. Next, the ethanol solution (90 μl) prepared according to Production example 1 was treated on the exposed area of the chick. The chick treated the solution on its abdomen was put on the cage, and the treated abdomen was exposed to the cage just after treating and after 3 hours from treating. After 1, 2 and 4 minutes from putting the chick, the number of yellow fever mosquitoes on the abdomen was counted and summed up. The test was repeated twice.
Further, the same procedure was performed using a chick treated ethanol without active ingredient on its abdomen, and the number of yellow fever mosquitoes on the abdomen was counted. […] [formula]
Furthermore, the same procedure was performed using ethanol solution (90 μl) prepared according to Production example 1, provided that DEET was used in place of Compound [A] for comparison.

`CCN(CC)C(=O)c1cccc(C)c1` [DEET, N,N-diethyl-m-toluamide]: in test [1], the “Repellency (%)” value stood at 0% and the “No. of cockroaches (German cockroaches in the triangular pillar)” value (shortened to “No. of cockroaches”) is 20. In addition, in test [2] (After 3 hours), the “No. of mosquitoes (sum of yellow fever mosquitoes on the abdomen of the chick after 1, 2 and 4 minutes)” value (“No. of mosquitoes” below) worked out at 3; the “Repellency (%)” value came out at 96.5%. In test [2] (Immediately after treating), the “No. of mosquitoes” value came to 0; the “Repellency (%)” value was found to be 100%.

In the case of `CCCCCCCCSCCO` [MGK874, 2-(octylthio)ethanol], in test [1], the “Repellency (%)” value is listed as 15% and the “No. of cockroaches” value was 17.

With `Cc1cc(O)c(C(=O)CCC(C)C)c(=O)o1` [Compound [A], 4-hydroxy-6-methyl-3-(4-methylpentanoyl)-2-pyrone], the “Repellency (%)” value in test [1] is listed as 90%; in test [2] (After 3 hours) it was 100%; in test [2] (Immediately after treating), 100%. Also, the “No. of cockroaches” value in test [1] is reported as 2. Moreover, the “No. of mosquitoes” value in test [2] (After 3 hours) and in test [2] (Immediately after treating) was 0 throughout.
